Measurements reported in US20250298040A1, “MEASUREMENT OF REACTIVE OXYGEN SPECIES TO ASSESS RED BLOOD CELL QUALITY” (UNIVERSITY OF MARYLAND, BALTIMORE, priority 2022, published 2025).

Columns and labels:
RBCs [1] = experiment: Complete blood count RBC parameters following CMH exposure; format: cell-based, human; conditions: CMH 0.1, 0.3, 1.0, 3.0 and 10 mM, 10 minutes, ambient temperature, vs vehicle ddH2O
Description: (§1) Donor blood. Blood was obtained from healthy volunteers under informed consent. All human subject research was approved by the University of Maryland, Baltimore Institutional Review Board under Protocol #-HP-00092436.
(§2) CMH Incubation. Whole blood was centrifuged at 900 g/2500 rpm for 10 minutes to separate RBC from plasma/buffy coat. Plasma and buffy coat were removed, and RBCs were washed five times with 0.5 ml volumes of isotonic phosphate buffered saline containing 5 mM glucose. After each wash, supernatant and residual buffy coat was removed. After the 5th wash the RBC pellet was mixed with the preservative solution, CPDA-1 in an 85:15 ratio (150 μL CPDA-1 for a total volume of 1 mL). This step was performed to approximate the preparation of packed RBCs for refrigerator storage. CMH was diluted with double deionized H2O (ddH2O) to make stock solutions ranging from 400-4 mM. 10 μL of stock CMH solution or ddH2O was added to 390 μL of RBC/CPDA-1 suspensions, mixed gently but thoroughly and incubated at ambient temperature for 10 minutes. The concentrations tested were as follows: 0.1, 0.3, 1.0, 3.0 and 10 mM. This step was performed to approximate the preparation time needed for assaying superoxide in donor RBCs at the point of collection or in a blood bank setting. After 10 minutes of incubation, complete blood count, shear stress deformability, oxygen equilibrium (oxygen saturation and desaturation) was measured as 3 technical replicates for all samples. Fixation of RBCs was performed for scanning electron microscopy.
Total Blood cell count. Total blood cell count was quantified using ABX Pentra 60 C+ Hematology analyzer (HORIBA Instruments Inc., Kyoto, Japan). Briefly, 60 μL of whole blood was used for the analyses.

[2] = CMH incubation with hydrogen peroxide, cell-free EPR
Description: (§3) Measurement of CMH oxidation by EPR spectroscopy. All samples for EPR measurement contained 1 mM CMH. Other reagents, when used, were at the following concentrations: xanthine oxidase (XO), 0.03 U/mL; superoxide dismutase (SOD), 5 μM; hypoxanthine (HX), 0.5 mM; hydrogen peroxide (H2O2), 1 mM. Cell-free measurements were made in phosphate-buffered saline (PBS) containing 1 mM diethylenetriaminepentaacetic acid (DTPA). For measurements on RBCs, each sample was made by mixing 2 μL of 50 mM CMH·HCl stock solution with 98 μL of RBC suspension (˜40% hematocrit) in Citrate Phosphate Dextrose Adenine (CPDA-1, Sigma-Aldrich, St. Louis, MO). Time zero (t=0) is the time at which CMH is mixed into the sample. The amplitude (h) of the center peak of the CM· nitroxide EPR spectrum was converted into concentration (C in μM) by using a calibration equation, which for this example was C=(h−0.03308)/0.06461, determined using a series of standard samples.
(§4) Hydroxylamine molecular probe oxidation by O2^·−. The enzyme xanthine oxidase (XO) oxidizes its substrate hypoxanthine and generates O2^·− in the process. […] The first and last EPR spectrum of a representative data set are plotted as the inset at the top left, showing growth of the EPR spectrum as reaction proceeds. Superoxide dismutase (SOD) destroys O2^·− in a rapid enzymatic process, thus preventing it from reacting with CMH. […]

human RBCs = experiment: CMH oxidation in human RBCs stored under normoxic vs hypoxic conditions, EPR; format: cell-based; conditions: entire duration of storage, p<9.31×10^−4
Description: as §3
Distinguishing between normoxic and hypoxic storage conditions. Hydroxylamine molecular probe, e.g., CMH, measurements can be used to distinguish human RBCs stored under normoxic and hypoxic conditions, as shown in FIG. 3B. Duplicate samples of human RBCs were stored 1) under normoxic conditions (equilibrated with air), and 2) under hypoxic conditions (equilibrated with low-oxygen atmosphere) and tested periodically with CMH. […]

[3] = CMH oxidation by O2^·− from xanthine oxidase/hypoxanthine, cell-free EPR; conditions: 1 mM CMH
Description: as §3, §4

RBC = conditions: cited from earlier work
[4] = test system: RBCs from FVB and B6 mice; experiment: CMH oxidation in refrigerator-stored murine RBCs (FVB vs B6), EPR; format: cell-based, mouse
Description: as §3
Murine blood collection and storage. Mouse blood collections were approved by the University of Maryland, Baltimore Institutional Animal Care and Use Committee (IACUC) (protocol #0520008). Processed RBCs from two different mouse strains (C57BL/6J or B6 for short, Jackson Laboratory, Barr Harbor, ME and FVB, Charles Rivers, Worcester, MA) were evaluated in this study. Whole blood (approximately 800-1000 μL per mouse) was collected by cardiac puncture using a 21 G×1 inch needle and 1 mL syringe containing Citrate Phosphate Dextrose solution (CPD) from n=15 B6 and n=15 FVB mice. Blood was pooled within the strains in 15 mL falcon tubes and centrifuged at 750×g for 5 minutes. The plasma and buffy coat were removed. Each aliquot was washed 3 times in 5 mL of phosphate-buffered saline containing 10 mM glucose (PBS-G) with gentle swirling for 3 minutes followed by centrifugation at 750×g for 5 minutes. After the final wash, PBS-G was removed and CPDA-1 (840 μL, 14% of the total volume) was added to RBCs (approximately 6 mL of packed RBCs). Hematocrits were approximately 70% across storage tubes. Finally, preparations were split into 12 equal volumes (500 μL) and stored in 1.7 mL Eppendorf tubes (n=3 per mouse strain per time point) in a refrigerator at 4-6° C. Measurements were made on day 1 (immediately after processing) and then on days 2, 4 and 8 after processing such that measurements were made from independent tubes and not a single pooled blood tube.
Data analysis and presentation. Least-squares curve fitting and statistical analysis were performed using OriginPro software (OriginLab Corp., Northampton, MA). […] Difference between the two strains on the same day was assessed by t-test; within-strain differences over multiple days of storage were assessed through ANOVA.

RBCs [5] = experiment: Scanning electron microscopy of RBCs exposed to CMH; format: cell-based, human; conditions: CMH 0.1, 0.3, 1.0, 3.0 and 10 mM, 10 minutes, ambient temperature, vs vehicle
Description: as §1
as §2, with “This step was performed to approximate the preparation time needed for assaying superoxide in donor RBCs at the point of collection or in a blood bank setting.” left out, “Fixation of RBCs was performed for scanning electron microscopy.” left out

[6] = test system: RBCs from healthy donors and donors with sickle-cell disease; experiment: CMH oxidation in RBCs from healthy donors vs donors with sickle-cell disease, EPR; format: cell-based, human; conditions: SCD n=19, Healthy n=6, p=1.26×10^−6
Description: as §3
Distinguishing between RBCs from healthy subjects and patients with sickle-cell disease. Hydroxylamine molecular probe, e.g., CMH, measurements can be used to differentiate between RBCs from healthy donors and donors with sickle-cell disease, as shown in FIG. 4. RBCs from screened healthy donors (Healthy, n=6) and donors that have sickle-cell disease (SCD, n=19) were tested with CMH. […] Error bars represent s.e.m.

RBCs [7] = experiment: Oxygen equilibrium (P50) of RBCs exposed to CMH; format: cell-based, human; conditions: CMH up to 10 mM (10-fold the intended assay concentration)
Description: as §1
as §2, with “10 μL of stock CMH solution or ddH2O was added to 390 μL of RBC/CPDA-1 suspensions, mixed gently but thoroughly and incubated at ambient temperature for 10 minutes. The concentrations tested were as follows: 0.1, 0.3, 1.0, 3.0 and 10 mM. This step was performed to approximate the preparation time needed for assaying superoxide in donor RBCs at the point of collection or in a blood bank setting.” left out, “Fixation of RBCs was performed for scanning electron microscopy.” left out
Measurement of Oxygen equilibrium (p50). […] The P50 value was determined using an automated blood oxygen analyzer (Hemox, Model B, TCS Scientific) following the manufacturer's protocol. […]

RBCs [8] = experiment: Shear stress ektacytometry of RBCs exposed to CMH; format: cell-based, human; conditions: CMH 0.1, 0.3, 1.0, 3.0 and 10 mM; shear stress 5.33 Pa and 30 Pa; vs vehicle, P>0.05
Description: as §1
as §2, with “10 μL of stock CMH solution or ddH2O was added to 390 μL of RBC/CPDA-1 suspensions, mixed gently but thoroughly and incubated at ambient temperature for 10 minutes. The concentrations tested were as follows: 0.1, 0.3, 1.0, 3.0 and 10 mM. This step was performed to approximate the preparation time needed for assaying superoxide in donor RBCs at the point of collection or in a blood bank setting.” left out, “Fixation of RBCs was performed for scanning electron microscopy.” left out
Measurements of RBC deformability. RBC deformability was measured by ektacytometry, using the laser-assisted optical rotational cell analyzer (LORCA MaxSis, Mechatronics, Netherlands) at 37° C. […] RBC deformability was measured by applying 9 different shear stresses ([…]). […]

Structure (SMILES)	% hematocrit (RBCs [1])	Mean corpuscular hemoglobin (RBCs [1])	Mean corpuscular volume (RBCs [1])	RBC count (RBCs [1])	mean corpuscular hemoglobin concentration (RBCs [1])	total hemoglobin (RBCs [1])	generation of CM· on incubation with H2O2 ([2]; 1 mM CMH, 1 mM H2O2, PBS with 1 mM DTPA)	selectivity of CMH for O2^·− over H2O2 ([2]; 1 mM H2O2)	rate of CMH oxidation, normoxic vs hypoxic stored RBCs (human RBCs)	reaction of CMH with O2^·− (CM· formation quantified by EPR) ([3]; XO 0.03 U/mL, hypoxanthine 0.5 mM, PBS with 1 mM DTPA)	production of CM· in presence of SOD ([3]; XO + hypoxanthine + SOD 5 μM)	membrane permeance (RBC)	rate of CM· generation in B6 RBCs ([4]; B6 mouse RBCs, day 2 of storage, 1 mM CMH, slightly above buffer control CPDA-1)	rate of CM· generation in FVB RBCs ([4]; FVB mouse RBCs vs B6, day 2 of storage, 1 mM CMH)	mean rate of CMH to CM· oxidation, FVB versus B6 murine RBCs ([4]; days 1, 2, 4 and 8 of storage)	RBC membrane/morphology changes by SEM (RBCs [5])	rate of CMH oxidation, SCD RBCs vs Healthy RBCs [6]	oxygen equilibrium curves / P50 (hemoglobin allostery) (RBCs [7])	RBC elongation index (RBCs [8])	mean [CM·] higher in RBCs from FVB mice than B6 ([4]; at the time of CMH addition, each day of measurement)
COC(=O)C1CC(C)(C)N(O)C1(C)C (stereo not drawn) [CMH, 1-hydroxy-3-methoxycarbonyl-2,2,5,5-tetramethylpyrrolidine]	no CMH concentration dependent differences	no CMH concentration dependent differences	no CMH concentration dependent differences	no CMH concentration dependent differences	no CMH concentration dependent differences	no CMH concentration dependent differences	negligible generation of CM·	high selectivity	much higher rate	converts it to CM·	negligible production of CM·	membrane-permeant	low rate	much higher rate	3 fold	no remarkable changes	much higher rates	does not impart aberrant hemoglobin allostery	do not change the elongation indices	
COC(=O)C1CC(C)(C)N([O])C1(C)C (stereo not drawn) [CM·]												membrane-permeant								~9 µM
